Assay [1] concerns various cancer cell lines. In words: Cytotoxicity of FL118 in various cancer cell lines. The assay is classed as cell-based. To be noted: 140 cell lines originating from various cancers; against most cancer cells.
The test system of the next assay is MDA-MB-468 cells. Kind of assay: In vivo drug efficacy, MDA-MB-468 xenograft model (sacituzumab / Example 9). To be noted: MDA-MB-468 model, Group 2, dose not given. Set-up: species or system mice.

In the case of `CCC1(O)C(=O)OCc2c1cc1n(c2=O)Cc2cc3cc4c(cc3nc2-1)OCO4` (stereo in doubt) [FL118, (4S)-4-ethyl-4-hydroxy-8,9-methylenedioxy-1H-pyrano[3′,4′:6,7]indolizino[1,2-b]quinoline-3,14(4H,12H)-dione], the IC50 in assay [1] is under 100 nM.

On to “sacituzumab: Trop-2 target antibody; control”, for which the Tumor volume is recorded as 200.20 ± 30.90 mm^3 in the assay on MDA-MB-468 cells (Day 0) and 433.08±126.82 mm^3 in the assay on MDA-MB-468 cells (Day 21). In the assay with MDA-MB-468 cells (Day 21), the TGI was determined as 43.6%.

Broadly, the IC50 is the concentration that gives 50% inhibition. Low values mean inhibition by little substance, high ones a need for much substance. One may read the TGI as how far tumour growth fell short of that in controls. Lower therefore signals little slowing of growth.

(Values after US20230270867A1, “CONJUGATE IN WHICH FL118 DRUG IS LINKED TO ACID-SENSITIVE LINKER, AND IMMUNOCONJUGATE USING SAME” (PINOTBIO, INC., priority 2020, published 2023).)
